Data taken from US8603986B2, “Compounds and methods for modulating cadherin-mediated processes” (McGill University, priority 2005, dated 2013).

Legend:
[1] = tested on: Human Dermal Microvascular Endothelial Cells (HMVEC-d); test: Disruption of HMVEC adhesion; assay type: cell-based; set-up: key to Peptide Disrupts Adhesion of HMVEC: +: yes; −: no; conditions: for Peptide Disrupts Adhesion of HMVEC: Table 8 summary
Description: (§1) Human Umbilical Vein Endothelial Cells (HUVEC) and Human Dermal Microvascular Endothelial Cells (HMVEC-d) were purchased from Cambrex Bio Science Walkersville, Inc. Clonetics EGM-2 and EGM-2-MV Bulletkits (Cambrex Bio Science Walkersville, Inc) were used to culture HUVEC and HMVEC-d respectively. Cells (40,000 per well) were plated onto a 4 well slide (NalgeNunc, Naperville, Ill.) and incubated at 37° C., in a humidified atmosphere (5% CO2).
(§2) Depending on their solubility, peptides were dissolved directly in culture medium and added to confluent cell cultures at the indicated concentration, or they were dissolved in dimethylformamide (DMF) to obtain a 100× concentrated solution or in water to obtain a 10× concentrated solution. The peptide stock solutions were further diluted with culture medium to a final working concentration and added to confluent cell cultures. Culture medium containing 1% solvent was used as a control. At the end of the treatment, cells were either examined by phase contrast microscopy, or fixed with 4% paraformaldehyde in PBS and stained with hematoxylin prior to light microscopic examination.

[2] = tested on: Human Umbilical Vein Endothelial Cells (HUVEC); test: Disruption of HUVEC adhesion; assay type: cell-based; set-up: key to Peptide Disrupts Adhesion of HUVEC: +: yes; −: no; conditions: for Peptide Disrupts Adhesion of HUVEC: Table 8 summary
Description: as §1, §2

[3] = molecular target: T1, VE-cadherin/Fc chimeric protein (Homo sapiens, UniProt P33151); test: Surface plasma resonance (Biacore) analysis on VE-cadherin/Fc; assay type: binding; conditions: 100-1.56 uM
T1 construct: purchased R&D Systems, Minneapolis, Minn
Description: The binding of representative peptide modulating agents to either N- or VE-cadherin/Fc chimeric proteins was assessed using a BIAcore X™ Biosensor (Pharmacia Ltd., Sweden). Goat anti-human IgG recognizing N- and VE-cadherin/Fc chimeric proteins (R&D Systems, Minneapolis, Minn.) was immobilized on a CM5 sensor chip (Biacore S51) using standard amine-coupling method at 25° C. HBS-P buffer (10 mM HEPES, 0.15 M NaCl, 0.005% p20, pH 7.4) was used as the running buffer. The carboxymethyl dextran surface was activated with a 7 min injection of a 1:1 ratio of 0.4 M EDC and 0.1 M NHS. The goat anti-human IgG (Caltag Lab.) was coupled to the surface with a 7 min injection diluted in 10 mM sodium acetate, pH 5.0 to a final concentration 80 ug/ml. Remaining activated groups were blocked with a 7 min injection of 1 M ethanolamine, pH 8.5. N- and VE-cadherin/Fc chimeric proteins were dissolved in buffer containing 50 mM Tris HCl, 150 mM NaCl, and 1.2 mM CaCl2 pH 7.5 to a concentration of 0.2 μM and captured on spots 1 and 2 at a flow rate of 30 μl/min for 30 min with resulting density 927 RU for N-cadherin/Fc chimeric protein and 1008 RU for VE-cadherin/Fc chimeric protein. […]

[4] = tested on: MCF-7 human breast cancer cells; test: Disruption of MCF-7 cell adhesion; assay type: cell-based; set-up: key to Peptide Disrupts Adhesion of MCF-7 cells: +: yes; −: no
Description: MCF-7 human breast cancer cells (kind gift from Dr. Riaz Farookhi, McGill University, Montreal, Quebec) were cultured in the same medium as SKOV3 but supplemented with 1 mM sodium pyruvate.
as §2

[5] = tested on: SKOV3 human ovarian cancer cells; test: Disruption of SKOV3 cell adhesion in confluent cultures; assay type: cell-based; set-up: key to Peptide Disrupts Adhesion of SKOV3 cells: +: yes; −: no; conditions: for Peptide Disrupts Adhesion of SKOV3 cells: Table 8 summary; for effect on SKOV3 cell adhesion: confluent cultures, concentration not given
Description: SKOV3 human ovarian cancer cells (kind gift from Dr. Riaz Farookhi, McGill University, Montreal, Quebec) were cultured in MEM containing 1.25 μg/ml Fungizone, 100 U/ml penicillin 100 μg/ml streptomycin, 0.1 mM nonessential amino acids, 2 mM L-glutamine, 10 μg/ml ml gentamicin and 10% fetal bovine serum. All culture reagents were purchased from GIBCO (Burlington, ON). To obtain confluent cell cultures, 100,000 cells per well were plated onto a 4 well slide (NalgeNunc, Naperville, Ill.) and incubated for 24 h at 37° C., in a humidified atmosphere (5% CO2).
as §2
Confluent cultures of SKOV3 cells were incubated in the presence of individual peptides.

[6] = molecular target: T2, N-cadherin/Fc chimeric protein (Homo sapiens, UniProt P19022); test: Surface plasma resonance (Biacore) analysis on N-cadherin/Fc; assay type: binding
T2 construct: extracellular domain of human N-cadherin (Asp160-Ala724); purchased R&D Systems, Minneapolis, Minn
T2 sequence (P19022 160-724): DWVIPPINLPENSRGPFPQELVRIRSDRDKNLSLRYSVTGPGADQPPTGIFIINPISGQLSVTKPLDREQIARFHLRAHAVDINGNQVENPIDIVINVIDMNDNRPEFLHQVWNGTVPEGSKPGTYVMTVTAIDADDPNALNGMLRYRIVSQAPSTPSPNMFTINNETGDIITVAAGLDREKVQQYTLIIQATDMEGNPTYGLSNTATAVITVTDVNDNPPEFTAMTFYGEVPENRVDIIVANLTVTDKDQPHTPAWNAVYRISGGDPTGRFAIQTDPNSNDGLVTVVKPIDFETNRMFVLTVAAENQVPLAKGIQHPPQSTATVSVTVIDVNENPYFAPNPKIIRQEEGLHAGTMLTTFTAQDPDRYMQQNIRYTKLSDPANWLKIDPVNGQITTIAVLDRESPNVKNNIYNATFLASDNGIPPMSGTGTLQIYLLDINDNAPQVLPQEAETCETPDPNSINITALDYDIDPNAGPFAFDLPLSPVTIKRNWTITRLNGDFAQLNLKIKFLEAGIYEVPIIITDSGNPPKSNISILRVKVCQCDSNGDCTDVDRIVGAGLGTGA
Description: The binding of representative peptide modulating agents to either N- or VE-cadherin/Fc chimeric proteins was assessed using a BIAcore X™ Biosensor (Pharmacia Ltd., Sweden). Goat anti-human IgG recognizing N- and VE-cadherin/Fc chimeric proteins (R&D Systems, Minneapolis, Minn.) was immobilized on a CM5 sensor chip (Biacore S51) using standard amine-coupling method at 25° C. HBS-P buffer (10 mM HEPES, 0.15 M NaCl, 0.005% p20, pH 7.4) was used as the running buffer. The carboxymethyl dextran surface was activated with a 7 min injection of a 1:1 ratio of 0.4 M EDC and 0.1 M NHS. The goat anti-human IgG (Caltag Lab.) was coupled to the surface with a 7 min injection diluted in 10 mM sodium acetate, pH 5.0 to a final concentration 80 ug/ml. Remaining activated groups were blocked with a 7 min injection of 1 M ethanolamine, pH 8.5. N- and VE-cadherin/Fc chimeric proteins were dissolved in buffer containing 50 mM Tris HCl, 150 mM NaCl, and 1.2 mM CaCl2 pH 7.5 to a concentration of 0.2 μM and captured on spots 1 and 2 at a flow rate of 30 μl/min for 30 min with resulting density 927 RU for N-cadherin/Fc chimeric protein and 1008 RU for VE-cadherin/Fc chimeric protein.
The linear peptide H-SWTLYTPSGQSK-NH2 (SEQ ID NO: 16) and the control linear peptide H-SRTLYTPSGQSK-NH2 (SEQ ID NO: 58) were passed over surfaces coated with captured N- and VE-cadherin/Fc chimeric proteins in running buffer containing 50 mM Tris-HCl, 150 mM NaCl, and 1.2 mM CaCl2, pH 7.5 at concentrations ranging from 100-1.56 uM. The experiment was performed at a flow rate 90 ul/min at 25° C. […] All responses were referenced for reference surface and blank injections of running buffer.

[7] = molecular target: T2, N-cadherin/Fc chimeric protein; test: Table 8 summary: peptide binds to N-cad/Fc; assay type: binding; set-up: key: +: yes; −: no
[8] = molecular target: T3, E-cadherin/Fc chimeric protein (Homo sapiens, UniProt P12830); test: Table 8 summary: peptide binds to E-cad/Fc; assay type: binding; set-up: key: +: yes; −: no
T3 construct: extracellular domain of human E-cadherin (Asp155-Ile707); purchased R&D Systems, Minneapolis, Minn
T3 sequence (P12830 155-707): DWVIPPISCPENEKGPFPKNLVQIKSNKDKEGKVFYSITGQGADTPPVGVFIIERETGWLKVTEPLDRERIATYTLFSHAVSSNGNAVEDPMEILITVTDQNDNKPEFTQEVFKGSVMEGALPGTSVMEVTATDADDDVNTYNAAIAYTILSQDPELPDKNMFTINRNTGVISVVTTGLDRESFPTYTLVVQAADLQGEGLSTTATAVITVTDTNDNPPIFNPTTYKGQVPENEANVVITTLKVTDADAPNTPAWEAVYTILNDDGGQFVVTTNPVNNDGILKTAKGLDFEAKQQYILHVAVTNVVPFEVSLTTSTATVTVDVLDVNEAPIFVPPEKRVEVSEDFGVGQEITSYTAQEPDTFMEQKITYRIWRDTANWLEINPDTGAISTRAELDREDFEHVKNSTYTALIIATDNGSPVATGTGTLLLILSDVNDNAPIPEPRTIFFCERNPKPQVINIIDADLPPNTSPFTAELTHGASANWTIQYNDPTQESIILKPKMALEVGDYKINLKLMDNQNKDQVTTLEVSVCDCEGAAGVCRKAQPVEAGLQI

[9] = 1 mg/ml medium, up to 1 h incubation

T1 sequence (P33151 with tags, fused parts or gaps limits assumed, species assumed): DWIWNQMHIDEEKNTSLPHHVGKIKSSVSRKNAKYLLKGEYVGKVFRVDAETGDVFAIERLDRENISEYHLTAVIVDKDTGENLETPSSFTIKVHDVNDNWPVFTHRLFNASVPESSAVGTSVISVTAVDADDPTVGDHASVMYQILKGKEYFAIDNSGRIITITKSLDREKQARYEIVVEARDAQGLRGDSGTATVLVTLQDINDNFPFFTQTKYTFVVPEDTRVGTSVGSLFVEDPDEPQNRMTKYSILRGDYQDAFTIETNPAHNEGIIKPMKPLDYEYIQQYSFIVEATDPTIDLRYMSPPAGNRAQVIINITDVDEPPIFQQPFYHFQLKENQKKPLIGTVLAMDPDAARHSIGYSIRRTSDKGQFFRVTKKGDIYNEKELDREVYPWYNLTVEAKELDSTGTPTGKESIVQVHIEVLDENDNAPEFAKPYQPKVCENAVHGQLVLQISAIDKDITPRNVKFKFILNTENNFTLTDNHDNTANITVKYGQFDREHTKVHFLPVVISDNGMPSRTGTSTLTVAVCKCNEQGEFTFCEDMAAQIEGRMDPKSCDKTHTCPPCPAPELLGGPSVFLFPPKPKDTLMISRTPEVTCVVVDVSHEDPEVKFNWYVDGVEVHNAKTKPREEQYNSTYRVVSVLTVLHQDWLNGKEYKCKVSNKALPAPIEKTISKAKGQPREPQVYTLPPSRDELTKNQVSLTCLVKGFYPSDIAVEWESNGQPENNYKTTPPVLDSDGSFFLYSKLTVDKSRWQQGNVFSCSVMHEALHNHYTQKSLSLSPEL

## H-SWTLYTPSGQSK-NH2 [H-SWTLYTPSGQSK-NH2]
[1]; 0.062 mg/ml
  effect on HMVEC adhesion: disrupted
[1]; 0.125 mg/ml
  effect on HMVEC adhesion: more pronounced effects
[1]; 0.5 mg/ml and higher
  effect on HMVEC adhesion: still stronger effects
[1]
  Peptide Disrupts Adhesion of HMVEC: +
[2]; 0.062 mg/ml, 1 h incubation
  effect on HUVEC adhesion: moderate activity
[2]; 1 mg/ml medium
  incubation time after which HUVEC adhesion was disrupted: 5 min
  incubation time of maximum effect on HUVEC adhesion: 1 h
[2]; [9]
  effect on HUVEC adhesion: disrupted HUVEC adhesion
[2]
  Peptide Disrupts Adhesion of HUVEC: +
[2]; after 1 h incubation, dose-dependent
  peptide concentrations disrupting HUVEC adhesion: ≥ 0.125 mg/mL
[3]
  binding to VE-cadherin/Fc chimeric protein: did not bind
[4]; Table 8 summary
  Peptide Disrupts Adhesion of MCF-7 cells: −
[4]; concentration not given
  effect on MCF-7 cell adhesion: did not affect MCF-7 cell adhesion
[5]
  Peptide Disrupts Adhesion of SKOV3 cells: +
  effect on SKOV3 cell adhesion: disrupted SKOV3 cell adhesion
[6]; 25° C., 1.2 mM CaCl2
  Kd: 66 µM
  kd: 0.407(8) s^−1
[6]; pH 7.5, 25° C., 1.2 mM CaCl2, read-out: ka
  kon: 6100 M⁻¹ s⁻¹
[7]
  Peptide Binds to N-cad/Fc: +
[8]
  Peptide Binds to E-cad/Fc: −

## H-SRTLYTPSGQSK-NH2 [reference compound]
[1]
  Peptide Disrupts Adhesion of HMVEC: −
[1]; highest concentration of 1 mg/ml
  effect on HMVEC adhesion: had no biological activity
[2]; [9]
  effect on HUVEC adhesion: had no biological activity
[2]
  Peptide Disrupts Adhesion of HUVEC: −
[3]
  binding to VE-cadherin/Fc chimeric protein: did not bind
[5]
  Peptide Disrupts Adhesion of SKOV3 cells: −
  effect on SKOV3 cell adhesion: had no effect
[6]; 100-1.56 uM
  binding to N-cadherin/Fc chimeric protein: did not bind
[7]
  Peptide Binds to N-cad/Fc: −
